Source: paper PMC5488202

Assay: Ring-closing metathesis (C=C formation) of fluorous-tagged (FDIPES) terminal dienes with Hoveyda-Grubbs 2nd generation catalyst (typically 2 mol%, 1-5 mol%), usually with 1,4-benzoquinone (4-10 mol%); quench P(CH2OH)3/Et3N/silica
Details: MTBE, 2.0 mM, 55.0 °C

For CC(C)[Si](CCC(F)(F)C(F)(F)C(F)(F)C(F)(F)C(F)(F)C(F)(F)C(F)(F)C(F)(F)F)(OC[C@@H]1COCC=CCC[C@@H](O[Si](C)(C)C(C)(C)C)[C@H](C)CN(S(=O)(=O)C(F)(F)F)Cc2ccccc2CN1S(=O)(=O)c1ccccc1[N+](=O)[O-])C(C)C [34 (16+11; E/Z >98:<2)], which ring closure, isolated yield (from C=CCC[C@@H](O[Si](C)(C)C(C)(C)C)[C@H](C)CN(Cc1ccccc1CN([C@@H](COCC=C)CO[Si](CCC(F)(F)C(F)(F)C(F)(F)C(F)(F)C(F)(F)C(F)(F)C(F)(F)C(F)(F)F)(C(C)C)C(C)C)S(=O)(=O)c1ccccc1[N+](=O)[O-])S(=O)(=O)C(F)(F)F, 17-membered ring, 16.0 h) is on record?
Its ring closure, isolated yield is 61%.

Which ring closure, isolated yield (from C=CCOC[C@@H](COC(=O)N(Cc1cccc(CN([C@H](COCC=C)CO[Si](CCC(F)(F)C(F)(F)C(F)(F)C(F)(F)C(F)(F)C(F)(F)C(F)(F)C(F)(F)F)(C(C)C)C(C)C)S(=O)(=O)c2ccccc2[N+](=O)[O-])c1)S(=O)(=O)c1ccccc1[N+](=O)[O-])c1ccc(OC)cc1OC, 20-membered ring, 24.0 h) does the source give for COc1ccc([C@H]2COCC=CCOC[C@H](CO[Si](CCC(F)(F)C(F)(F)C(F)(F)C(F)(F)C(F)(F)C(F)(F)C(F)(F)C(F)(F)F)(C(C)C)C(C)C)N(S(=O)(=O)c3ccccc3[N+](=O)[O-])Cc3cccc(c3)CN(S(=O)(=O)c3ccccc3[N+](=O)[O-])C(=O)OC2)c(OC)c1 [36 (17+9; E/Z 25:75)] here?
The ring closure, isolated yield was 76%.

For CC(C)[Si](CCC(F)(F)C(F)(F)C(F)(F)C(F)(F)C(F)(F)C(F)(F)C(F)(F)C(F)(F)F)(OC[C@H]1CC=CCOc2ccccc2COC(=O)N(S(=O)(=O)c2ccccc2[N+](=O)[O-])Cc2cccc(c2)CN1S(=O)(=O)c1ccccc1[N+](=O)[O-])C(C)C (mixture of isomers) [28 (14+10; unchromatographed E/Z mixture)], which ring closure, isolated yield (from C=CCOc1ccccc1COC(=O)N(Cc1cccc(CN([C@H](CC=C)CO[Si](CCC(F)(F)C(F)(F)C(F)(F)C(F)(F)C(F)(F)C(F)(F)C(F)(F)C(F)(F)F)(C(C)C)C(C)C)S(=O)(=O)c2ccccc2[N+](=O)[O-])c1)S(=O)(=O)c1ccccc1[N+](=O)[O-], 18-membered ring, 24.0 h) is on record?
Its ring closure, isolated yield is 88%.

With COc1ccc([C@H]2COCC=CC[C@H](CO[Si](CCC(F)(F)C(F)(F)C(F)(F)C(F)(F)C(F)(F)C(F)(F)C(F)(F)C(F)(F)F)(C(C)C)C(C)C)N(S(=O)(=O)c3ccccc3[N+](=O)[O-])CC3=CC=C(CN(S(=O)(=O)c4ccccc4[N+](=O)[O-])C(=O)OC2)S3)c(OC)c1 [21 (15+9, from 20; 2 steps RCM + denosylation; E/Z 65:35)] as the compound, how does the ring closure, isolated yield (from C=CCOC[C@@H](COC(=O)N(Cc1ccc(CN([C@H](CC=C)CO[Si](CCC(F)(F)C(F)(F)C(F)(F)C(F)(F)C(F)(F)C(F)(F)C(F)(F)C(F)(F)F)(C(C)C)C(C)C)S(=O)(=O)c2ccccc2[N+](=O)[O-])s1)S(=O)(=O)c1ccccc1[N+](=O)[O-])c1ccc(OC)cc1OC, 18-membered ring, 24.0 h) read?
The ring closure, isolated yield was 34%.

Which ring closure, isolated yield (from C=CCCN(Cc1cccc(CN([C@H](COCC=C)CO[Si](CCC(F)(F)C(F)(F)C(F)(F)C(F)(F)C(F)(F)C(F)(F)C(F)(F)C(F)(F)F)(C(C)C)C(C)C)S(=O)(=O)c2ccccc2[N+](=O)[O-])c1)S(=O)(=O)C(F)(F)F, 15-membered ring, 48.0 h) does the source give for CC(C)[Si](CCC(F)(F)C(F)(F)C(F)(F)C(F)(F)C(F)(F)C(F)(F)C(F)(F)C(F)(F)F)(OC[C@H]1COCC=CCCN(S(=O)(=O)C(F)(F)F)Cc2cccc(c2)CN1S(=O)(=O)c1ccccc1[N+](=O)[O-])C(C)C [38 (17+12; E 55% + Z 15%)] here?
Its ring closure, isolated yield is 70%.
